In ChEMBL document CHEMBL4627322, “Design and synthesis of a novel class EGFR/HER2 dual inhibitors containing tricyclic oxazine fused quinazolines scaffold” (Bioorg Med Chem Lett, 2020):

Tested on: NCI-H1975
Experiment: Potency index, ratio of erlotinib IC50 to test compound IC50 for antiproliferative activity against human NCI-H1975 cells harboring EGFR L858R/T790M mutant assessed as cell growth inhibition measured after 72 hrs by MTT assay
Type: functional
Conditions: not given

SMILES	Ratio IC50
CCN(CC)C/C=C/C(=O)N1CCOc2cc3ncnc(Nc4ccc(OCc5cccc(F)c5)c(Cl)c4)c3cc21	4 - 8
O=C(/C=C/CN1CCCC1)N1CCOc2cc3ncnc(Nc4ccc(OCc5cccc(F)c5)c(Cl)c4)c3cc21	4 - 8

Target: T1, Receptor tyrosine-protein kinase erbB-2 (Homo sapiens, UniProt P04626)
Experiment: Potency index, ratio of lapatinib IC50 to test compound IC50 for inhibition of HER2 (unknown origin) using FAM-labeled peptide as substrate preincubated for 10 mins followed by substrate addition measured after 40 mins in presence of ATP by caliper mobility shift assay
Conditions: not given

T1 sequence (P04626 whole entry): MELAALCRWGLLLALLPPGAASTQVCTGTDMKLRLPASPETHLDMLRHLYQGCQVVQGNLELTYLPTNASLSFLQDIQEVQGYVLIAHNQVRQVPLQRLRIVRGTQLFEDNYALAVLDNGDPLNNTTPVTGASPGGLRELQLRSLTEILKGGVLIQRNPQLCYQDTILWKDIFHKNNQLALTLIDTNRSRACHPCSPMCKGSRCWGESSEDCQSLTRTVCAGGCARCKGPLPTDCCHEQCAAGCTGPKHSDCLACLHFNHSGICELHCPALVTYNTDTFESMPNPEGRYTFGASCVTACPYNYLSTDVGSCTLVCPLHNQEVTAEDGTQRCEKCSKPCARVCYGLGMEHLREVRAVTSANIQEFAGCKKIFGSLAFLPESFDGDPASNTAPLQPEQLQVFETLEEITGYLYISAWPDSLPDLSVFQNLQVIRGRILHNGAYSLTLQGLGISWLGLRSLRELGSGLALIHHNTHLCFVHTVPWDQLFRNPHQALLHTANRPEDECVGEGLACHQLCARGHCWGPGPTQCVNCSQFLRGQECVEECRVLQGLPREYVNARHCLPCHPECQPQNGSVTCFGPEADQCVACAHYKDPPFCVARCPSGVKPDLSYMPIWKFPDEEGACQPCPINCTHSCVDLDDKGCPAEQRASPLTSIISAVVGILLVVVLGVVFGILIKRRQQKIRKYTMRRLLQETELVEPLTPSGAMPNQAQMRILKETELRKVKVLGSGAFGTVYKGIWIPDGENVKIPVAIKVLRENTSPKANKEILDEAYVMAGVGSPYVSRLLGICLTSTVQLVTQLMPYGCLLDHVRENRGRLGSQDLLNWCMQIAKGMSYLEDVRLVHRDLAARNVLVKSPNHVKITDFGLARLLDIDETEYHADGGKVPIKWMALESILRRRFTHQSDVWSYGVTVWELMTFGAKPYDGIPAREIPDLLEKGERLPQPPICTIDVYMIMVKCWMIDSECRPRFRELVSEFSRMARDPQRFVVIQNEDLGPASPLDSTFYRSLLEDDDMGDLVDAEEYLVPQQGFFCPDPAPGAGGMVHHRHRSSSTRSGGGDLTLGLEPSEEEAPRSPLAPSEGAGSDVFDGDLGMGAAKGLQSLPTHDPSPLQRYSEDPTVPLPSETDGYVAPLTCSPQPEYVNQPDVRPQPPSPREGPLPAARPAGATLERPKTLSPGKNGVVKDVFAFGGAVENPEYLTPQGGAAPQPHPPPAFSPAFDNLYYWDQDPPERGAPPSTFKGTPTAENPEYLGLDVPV

SMILES	Ratio IC50
CCN(CC)C/C=C/C(=O)N1CCOc2cc3ncnc(Nc4ccc(OCc5cccc(F)c5)c(Cl)c4)c3cc21	3 to 4
O=C(/C=C/CN1CCCC1)N1CCOc2cc3ncnc(Nc4ccc(OCc5cccc(F)c5)c(Cl)c4)c3cc21	3 to 4

Tested on: BT-474
Experiment: cells
Type: functional, cell-based
Conditions: Homo sapiens, BT-474, 72 h
Description: Antiproliferative activity against human BT474 cells overexpressing HER2 assessed as cell growth inhibition measured after 72 hrs by MTT assay

SMILES	IC50 [nM]
CCN(CC)C/C=C/C(=O)N1CCCOc2cc3ncnc(Nc4ccc(OCc5cccc(F)c5)c(Cl)c4)c3cc21	116
CN1CCN(C/C=C/C(=O)N2CCOc3cc4ncnc(Nc5ccc(OCc6cccc(F)c6)c(Cl)c5)c4cc32)CC1	25
CN(C)C/C=C/C(=O)N1CCCOc2cc3ncnc(Nc4ccc(OCc5cccc(F)c5)c(Cl)c4)c3cc21	127
O=C(/C=C/CN1CCCCC1)N1CCCOc2cc3ncnc(Nc4ccc(OCc5cccc(F)c5)c(Cl)c4)c3cc21	> 10000
O=C(/C=C/CN1CCCCC1)N1CCOc2cc3ncnc(Nc4ccc(OCc5cccc(F)c5)c(Cl)c4)c3cc21	118
CN(C)C/C=C/C(=O)N1CCOc2cc3ncnc(Nc4ccc(OCc5cccc(F)c5)c(Cl)c4)c3cc21	21
CC1CCCCN1C/C=C/C(=O)N1CCCOc2cc3ncnc(Nc4ccc(OCc5cccc(F)c5)c(Cl)c4)c3cc21 (stereo not drawn)	1010
CCN(CC)C/C=C/C(=O)N1CCOc2cc3ncnc(Nc4ccc(OCc5cccc(F)c5)c(Cl)c4)c3cc21	57
O=C(/C=C/CN1CCCC1)N1CCOc2cc3ncnc(Nc4ccc(OCc5cccc(F)c5)c(Cl)c4)c3cc21	60

Target: T1, Receptor tyrosine-protein kinase erbB-2
Experiment: Inhibition of HER2 (unknown origin) using FAM-labeled peptide as substrate preincubated for 10 mins followed by substrate addition measured after 40 mins in presence of ATP by caliper mobility shift assay
Conditions: not given

SMILES	IC50 [nM]
CN1CCN(C/C=C/C(=O)N2CCOc3cc4ncnc(Nc5ccc(OCc6cccc(F)c6)c(Cl)c5)c4cc32)CC1	12
CCN(CC)C/C=C/C(=O)N1CCOc2cc3ncnc(Nc4ccc(OCc5cccc(F)c5)c(Cl)c4)c3cc21	4
O=C(/C=C/CN1CCCC1)N1CCOc2cc3ncnc(Nc4ccc(OCc5cccc(F)c5)c(Cl)c4)c3cc21	4

Target: T2, Epidermal growth factor receptor (Homo sapiens, UniProt P00533)
Experiment: not given
Type: cell-based, KB
Conditions: not given

T2 sequence (P00533 whole entry): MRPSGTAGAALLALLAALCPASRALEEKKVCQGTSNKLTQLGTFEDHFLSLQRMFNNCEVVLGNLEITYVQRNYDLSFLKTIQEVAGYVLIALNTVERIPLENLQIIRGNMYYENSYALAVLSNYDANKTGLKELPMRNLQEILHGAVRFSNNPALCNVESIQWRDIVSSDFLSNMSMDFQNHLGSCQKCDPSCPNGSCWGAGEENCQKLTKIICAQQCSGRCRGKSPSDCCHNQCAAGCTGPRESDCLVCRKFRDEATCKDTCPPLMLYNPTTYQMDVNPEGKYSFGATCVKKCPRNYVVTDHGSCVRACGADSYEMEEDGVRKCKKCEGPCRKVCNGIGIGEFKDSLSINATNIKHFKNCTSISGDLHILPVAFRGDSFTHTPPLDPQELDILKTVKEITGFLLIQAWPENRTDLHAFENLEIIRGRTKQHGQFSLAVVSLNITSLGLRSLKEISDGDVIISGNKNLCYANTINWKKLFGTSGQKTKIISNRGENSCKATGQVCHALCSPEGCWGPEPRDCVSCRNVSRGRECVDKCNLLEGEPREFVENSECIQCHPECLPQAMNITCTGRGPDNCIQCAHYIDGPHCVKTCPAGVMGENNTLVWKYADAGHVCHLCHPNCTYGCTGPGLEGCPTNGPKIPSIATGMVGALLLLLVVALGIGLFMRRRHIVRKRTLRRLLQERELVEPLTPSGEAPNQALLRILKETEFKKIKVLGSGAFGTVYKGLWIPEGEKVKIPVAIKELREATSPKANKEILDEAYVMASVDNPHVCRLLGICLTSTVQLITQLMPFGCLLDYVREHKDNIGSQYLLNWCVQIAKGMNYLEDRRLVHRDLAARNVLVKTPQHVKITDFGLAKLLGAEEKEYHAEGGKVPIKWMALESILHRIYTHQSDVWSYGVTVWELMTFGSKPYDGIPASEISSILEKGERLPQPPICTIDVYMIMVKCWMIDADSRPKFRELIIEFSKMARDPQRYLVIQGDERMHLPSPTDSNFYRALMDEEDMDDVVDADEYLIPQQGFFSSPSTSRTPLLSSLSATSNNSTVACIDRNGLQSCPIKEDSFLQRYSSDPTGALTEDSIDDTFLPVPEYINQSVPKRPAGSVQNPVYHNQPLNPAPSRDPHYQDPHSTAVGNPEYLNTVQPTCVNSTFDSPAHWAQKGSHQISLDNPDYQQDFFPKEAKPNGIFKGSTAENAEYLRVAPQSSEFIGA

SMILES	IC50 [nM]
CCN(CC)C/C=C/C(=O)N1CCCOc2cc3ncnc(Nc4ccc(OCc5cccc(F)c5)c(Cl)c4)c3cc21	80
CN1CCN(C/C=C/C(=O)N2CCOc3cc4ncnc(Nc5ccc(OCc6cccc(F)c6)c(Cl)c5)c4cc32)CC1	45
CN(C)C/C=C/C(=O)N1CCCOc2cc3ncnc(Nc4ccc(OCc5cccc(F)c5)c(Cl)c4)c3cc21	446
O=C(/C=C/CN1CCCCC1)N1CCCOc2cc3ncnc(Nc4ccc(OCc5cccc(F)c5)c(Cl)c4)c3cc21	844
O=C(/C=C/CN1CCCCC1)N1CCOc2cc3ncnc(Nc4ccc(OCc5cccc(F)c5)c(Cl)c4)c3cc21	116
CN(C)C/C=C/C(=O)N1CCOc2cc3ncnc(Nc4ccc(OCc5cccc(F)c5)c(Cl)c4)c3cc21	126
CC1CCCCN1C/C=C/C(=O)N1CCCOc2cc3ncnc(Nc4ccc(OCc5cccc(F)c5)c(Cl)c4)c3cc21 (stereo not drawn)	5830
CCN(CC)C/C=C/C(=O)N1CCOc2cc3ncnc(Nc4ccc(OCc5cccc(F)c5)c(Cl)c4)c3cc21	163
O=C(/C=C/CN1CCCC1)N1CCOc2cc3ncnc(Nc4ccc(OCc5cccc(F)c5)c(Cl)c4)c3cc21	121

Tested on: NCI-H1975
Experiment: Potency index, ratio of gefitinib IC50 to test compound IC50 for antiproliferative activity against human NCI-H1975 cells harboring EGFR L858R/T790M mutant assessed as cell growth inhibition measured after 72 hrs by MTT assay
Type: functional
Conditions: not given

SMILES	Ratio IC50
CCN(CC)C/C=C/C(=O)N1CCOc2cc3ncnc(Nc4ccc(OCc5cccc(F)c5)c(Cl)c4)c3cc21	4 - 8
O=C(/C=C/CN1CCCC1)N1CCOc2cc3ncnc(Nc4ccc(OCc5cccc(F)c5)c(Cl)c4)c3cc21	4 - 8

Target: T1, Receptor tyrosine-protein kinase erbB-2
Experiment: Potency index, ratio of gefitinib IC50 to test compound IC50 for inhibition of HER2 (unknown origin) using FAM-labeled peptide as substrate preincubated for 10 mins followed by substrate addition measured after 40 mins in presence of ATP by caliper mobility shift assay
Conditions: not given

SMILES	Ratio IC50
CCN(CC)C/C=C/C(=O)N1CCOc2cc3ncnc(Nc4ccc(OCc5cccc(F)c5)c(Cl)c4)c3cc21	70
O=C(/C=C/CN1CCCC1)N1CCOc2cc3ncnc(Nc4ccc(OCc5cccc(F)c5)c(Cl)c4)c3cc21	70

Tested on: NCI-H1975
Experiment: Potency index, ratio of lapatinib IC50 to test compound IC50 for antiproliferative activity against human NCI-H1975 cells harboring EGFR L858R/T790M mutant assessed as cell growth inhibition measured after 72 hrs by MTT assay
Type: functional
Conditions: not given

SMILES	Ratio IC50
CCN(CC)C/C=C/C(=O)N1CCOc2cc3ncnc(Nc4ccc(OCc5cccc(F)c5)c(Cl)c4)c3cc21	4 - 8
O=C(/C=C/CN1CCCC1)N1CCOc2cc3ncnc(Nc4ccc(OCc5cccc(F)c5)c(Cl)c4)c3cc21	4 - 8

Target: T2, Epidermal growth factor receptor
Experiment: Potency index, ratio of lapatinib IC50 to test compound IC50 for inhibition of EGFR (unknown origin) using FAM-labeled peptide as substrate preincubated for 10 mins followed by substrate addition measured after 40 mins in presence of ATP by caliper mobility shift assay
Conditions: not given

SMILES	Ratio IC50
CN1CCN(C/C=C/C(=O)N2CCOc3cc4ncnc(Nc5ccc(OCc6cccc(F)c6)c(Cl)c5)c4cc32)CC1	3.7
CCN(CC)C/C=C/C(=O)N1CCOc2cc3ncnc(Nc4ccc(OCc5cccc(F)c5)c(Cl)c4)c3cc21	3 to 4
O=C(/C=C/CN1CCCC1)N1CCOc2cc3ncnc(Nc4ccc(OCc5cccc(F)c5)c(Cl)c4)c3cc21	3 to 4

Target: T2, Epidermal growth factor receptor
Experiment: not given
Conditions: not given
Remark: another data set of the same source

SMILES	IC50 [nM]
CN1CCN(C/C=C/C(=O)N2CCOc3cc4ncnc(Nc5ccc(OCc6cccc(F)c6)c(Cl)c5)c4cc32)CC1	6
CCN(CC)C/C=C/C(=O)N1CCOc2cc3ncnc(Nc4ccc(OCc5cccc(F)c5)c(Cl)c4)c3cc21	8
O=C(/C=C/CN1CCCC1)N1CCOc2cc3ncnc(Nc4ccc(OCc5cccc(F)c5)c(Cl)c4)c3cc21	7

Tested on: NCI-H1975
Experiment: cells
Type: functional, cell-based
Conditions: Homo sapiens, NCI-H1975, 72 h
Description: Antiproliferative activity against human NCI-H1975 cells harboring EGFR L858R/T790M mutant assessed as cell growth inhibition measured after 72 hrs by MTT assay

SMILES	IC50 [nM]
CCN(CC)C/C=C/C(=O)N1CCCOc2cc3ncnc(Nc4ccc(OCc5cccc(F)c5)c(Cl)c4)c3cc21	1490
CN1CCN(C/C=C/C(=O)N2CCOc3cc4ncnc(Nc5ccc(OCc6cccc(F)c6)c(Cl)c5)c4cc32)CC1	2310
CN(C)C/C=C/C(=O)N1CCCOc2cc3ncnc(Nc4ccc(OCc5cccc(F)c5)c(Cl)c4)c3cc21	> 10000
O=C(/C=C/CN1CCCCC1)N1CCCOc2cc3ncnc(Nc4ccc(OCc5cccc(F)c5)c(Cl)c4)c3cc21	1660
O=C(/C=C/CN1CCCCC1)N1CCOc2cc3ncnc(Nc4ccc(OCc5cccc(F)c5)c(Cl)c4)c3cc21	1780
CN(C)C/C=C/C(=O)N1CCOc2cc3ncnc(Nc4ccc(OCc5cccc(F)c5)c(Cl)c4)c3cc21	2540
CC1CCCCN1C/C=C/C(=O)N1CCCOc2cc3ncnc(Nc4ccc(OCc5cccc(F)c5)c(Cl)c4)c3cc21 (stereo not drawn)	> 10000
CCN(CC)C/C=C/C(=O)N1CCOc2cc3ncnc(Nc4ccc(OCc5cccc(F)c5)c(Cl)c4)c3cc21	1490
O=C(/C=C/CN1CCCC1)N1CCOc2cc3ncnc(Nc4ccc(OCc5cccc(F)c5)c(Cl)c4)c3cc21	1670

Tested on: NCI-N87
Experiment: cells
Type: functional, cell-based
Conditions: Homo sapiens, NCI-N87, 72 h
Description: Antiproliferative activity against human NCI-N87 cells overexpressing HER2 assessed as cell growth inhibition measured after 72 hrs by MTT assay

SMILES	IC50 [nM]
CCN(CC)C/C=C/C(=O)N1CCCOc2cc3ncnc(Nc4ccc(OCc5cccc(F)c5)c(Cl)c4)c3cc21	> 10000
CN1CCN(C/C=C/C(=O)N2CCOc3cc4ncnc(Nc5ccc(OCc6cccc(F)c6)c(Cl)c5)c4cc32)CC1	18
CN(C)C/C=C/C(=O)N1CCCOc2cc3ncnc(Nc4ccc(OCc5cccc(F)c5)c(Cl)c4)c3cc21	74
O=C(/C=C/CN1CCCCC1)N1CCCOc2cc3ncnc(Nc4ccc(OCc5cccc(F)c5)c(Cl)c4)c3cc21	> 10000
O=C(/C=C/CN1CCCCC1)N1CCOc2cc3ncnc(Nc4ccc(OCc5cccc(F)c5)c(Cl)c4)c3cc21	73
CN(C)C/C=C/C(=O)N1CCOc2cc3ncnc(Nc4ccc(OCc5cccc(F)c5)c(Cl)c4)c3cc21	12
CC1CCCCN1C/C=C/C(=O)N1CCCOc2cc3ncnc(Nc4ccc(OCc5cccc(F)c5)c(Cl)c4)c3cc21 (stereo not drawn)	502
CCN(CC)C/C=C/C(=O)N1CCOc2cc3ncnc(Nc4ccc(OCc5cccc(F)c5)c(Cl)c4)c3cc21	37
O=C(/C=C/CN1CCCC1)N1CCOc2cc3ncnc(Nc4ccc(OCc5cccc(F)c5)c(Cl)c4)c3cc21	48

Target: T1, Receptor tyrosine-protein kinase erbB-2
Experiment: Potency index, ratio of erlotinib IC50 to test compound IC50 for inhibition of HER2 (unknown origin) using FAM-labeled peptide as substrate preincubated for 10 mins followed by substrate addition measured after 40 mins in presence of ATP by caliper mobility shift assay
Conditions: not given

SMILES	Ratio IC50
CCN(CC)C/C=C/C(=O)N1CCOc2cc3ncnc(Nc4ccc(OCc5cccc(F)c5)c(Cl)c4)c3cc21	92
O=C(/C=C/CN1CCCC1)N1CCOc2cc3ncnc(Nc4ccc(OCc5cccc(F)c5)c(Cl)c4)c3cc21	92

Tested on: A-431
Experiment: cells
Type: functional, cell-based
Conditions: Homo sapiens, A-431, 72 h
Description: Antiproliferative activity against human A431 cells overexpressing EGFR assessed as cell growth inhibition measured after 72 hrs by MTT assay

SMILES	IC50 [nM]
CCN(CC)C/C=C/C(=O)N1CCCOc2cc3ncnc(Nc4ccc(OCc5cccc(F)c5)c(Cl)c4)c3cc21	> 10000
CN1CCN(C/C=C/C(=O)N2CCOc3cc4ncnc(Nc5ccc(OCc6cccc(F)c6)c(Cl)c5)c4cc32)CC1	177
CN(C)C/C=C/C(=O)N1CCCOc2cc3ncnc(Nc4ccc(OCc5cccc(F)c5)c(Cl)c4)c3cc21	2400
O=C(/C=C/CN1CCCCC1)N1CCCOc2cc3ncnc(Nc4ccc(OCc5cccc(F)c5)c(Cl)c4)c3cc21	> 10000
O=C(/C=C/CN1CCCCC1)N1CCOc2cc3ncnc(Nc4ccc(OCc5cccc(F)c5)c(Cl)c4)c3cc21	788
CN(C)C/C=C/C(=O)N1CCOc2cc3ncnc(Nc4ccc(OCc5cccc(F)c5)c(Cl)c4)c3cc21	258
CC1CCCCN1C/C=C/C(=O)N1CCCOc2cc3ncnc(Nc4ccc(OCc5cccc(F)c5)c(Cl)c4)c3cc21 (stereo not drawn)	> 10000
CCN(CC)C/C=C/C(=O)N1CCOc2cc3ncnc(Nc4ccc(OCc5cccc(F)c5)c(Cl)c4)c3cc21	612
O=C(/C=C/CN1CCCC1)N1CCOc2cc3ncnc(Nc4ccc(OCc5cccc(F)c5)c(Cl)c4)c3cc21	633

Tested on: Calu-3
Experiment: cells
Type: functional, cell-based
Conditions: Homo sapiens, Calu-3, 72 h
Description: Antiproliferative activity against human Calu3 cells overexpressing HER2 assessed as cell growth inhibition measured after 72 hrs by MTT assay

SMILES	IC50 [nM]
CCN(CC)C/C=C/C(=O)N1CCCOc2cc3ncnc(Nc4ccc(OCc5cccc(F)c5)c(Cl)c4)c3cc21	> 10000
CN1CCN(C/C=C/C(=O)N2CCOc3cc4ncnc(Nc5ccc(OCc6cccc(F)c6)c(Cl)c5)c4cc32)CC1	142
CN(C)C/C=C/C(=O)N1CCCOc2cc3ncnc(Nc4ccc(OCc5cccc(F)c5)c(Cl)c4)c3cc21	> 10000
O=C(/C=C/CN1CCCCC1)N1CCCOc2cc3ncnc(Nc4ccc(OCc5cccc(F)c5)c(Cl)c4)c3cc21	> 10000
CC1CCCCN1C/C=C/C(=O)N1CCCOc2cc3ncnc(Nc4ccc(OCc5cccc(F)c5)c(Cl)c4)c3cc21 (stereo not drawn)	> 10000
CCN(CC)C/C=C/C(=O)N1CCOc2cc3ncnc(Nc4ccc(OCc5cccc(F)c5)c(Cl)c4)c3cc21	275
O=C(/C=C/CN1CCCC1)N1CCOc2cc3ncnc(Nc4ccc(OCc5cccc(F)c5)c(Cl)c4)c3cc21	177
